Experimental data: publication PMC8004798, “Identification of Bioactive Compounds from Marine Natural Products and Exploration of Structure-Activity Relationships (SAR)” (Antibiotics, 2021)
Values after ≈ are worked out from the molar mass of the structure shown.

What was measured:
[1] = system: different test pathogens (MRSA, E. coli, P. aeruginosa, M. tuberculosis); experiment: Bacterial inhibition assay (MIC), summary over test pathogens; type: cell-based; conditions: read-out: MICs against MRSA, E. coli and P. aeruginosa
Description: For screening of the AIMS library, each test sample (10 µL) was dispensed into a separate well of a 96 well microtiter plates (final sample concentration 0.5 mg mL^−1) using sterile dH2O. […] Bacterial suspension (90 µL, OD600nm 0.001) was added to each well and plates were incubated at 37 °C for either 18 h (MRSA, P. aeruginosa PAO1, E. coli EC958) or 7 days for M. tuberculosis H37Rv as described previously. Resazurin (10 μL; 0.05% w/v) was added and plates were incubated for 3 h or 24 h (M. tuberculosis) at 37 °C. The inhibitory activity was calculated by visual determination of colour change within wells or detection of fluorescence at 590 nm using a FLUOstar Omega microplate reader (BMG Labtech, Ortenberg, Germany). Percentage survival was calculated in comparison to the average of untreated control wells after normalising for background readings.

P. aeruginosa PAO1 = experiment: Resazurin bacterial inhibition assay (MIC), P. aeruginosa; type: cell-based; conditions: Pseudomonas aeruginosa, PAO1; commercial compounds; 18 h, resazurin; read-out: Minimum Inhibitory Concentration P. aeruginosa
[2] = system: methicillin-resistant Staphylococcus aureus (MRSA); experiment: Resazurin bacterial inhibition assay (MIC), MRSA; type: cell-based; conditions: Staphylococcus aureus, MRSA; commercial compounds; 18 h, resazurin; read-out: Minimum Inhibitory Concentration MRSA
E. coli EC958 = experiment: Resazurin bacterial inhibition assay (MIC), E. coli; type: cell-based; conditions: Escherichia coli, EC958; commercial compounds; 18 h, resazurin; read-out: Minimum Inhibitory Concentration E. coli
[3] = system: human embryonic kidney cells 293 (HEK293); experiment: Resazurin cytotoxicity assay, HEK 293; conditions: commercial compounds; unit from Table 8 head
Text: (§1) To identify marine samples with activity against MRSA, 1434 compounds from the AIMS Bioresources Library (provided by the Queensland Compound Library, Brisbane, Australia, now called Compounds Australia) were screened in a resazurin cell viability assay.
(§2) Toxicity of AIMS Extract Library. Human alveolar epithelial cells (A549), Madin-Darby canine kidney epithelial cells (MDCK), human leukaemia cells (THP-1), human hepatocellular carcinoma cells (Hep-G2) and human embryonic kidney cells 293 (HEK293) were grown and differentiated in complete RPMI (Roswell Park Memorial Institute Medium) and DMEM (Dulbecco’s Modified Eagle’s medium) tissue culture media (RPMIc and DMEMc, from the Thermo Fisher Scientific, Waltham, MA, USA) by adding 10% FBS, 200 µM L-glutamine and 1 mM HEPES buffer solution. To determine toxicity of the AIMS extract library, 2 × 10^5 of each cell type were added to a 96-well plate and left for 48 h in a humidified 5% CO2 incubator at 37 °C to adhere. Extract samples at a final concentration of 0.5 mg mL^−1 were added to the wells, then the plates incubated for 4 more days in a humidified 5% CO2 incubator at 37 °C. Then, resazurin (10 μL of 0.05% w/v) was added and after 4 h, fluorescence measured as described previously. The cell viability was calculated as percentage fluorescence relative to untreated cells.

[4] = system: human leukaemia cells (THP-1); experiment: Resazurin cytotoxicity assay, THP-1; conditions: commercial compounds; unit from Table 8 head
Text: as §1
as §2, with “Extract samples at a final concentration of 0.5 mg mL^−1 were added to the wells, then the plates incubated for 4 more days in a humidified 5% CO2 incubator at 37 °C.” left out

M. tuberculosis H37Rv = experiment: Resazurin bacterial inhibition assay (MIC), M. tuberculosis; type: cell-based; conditions: Mycobacterium tuberculosis, 168 h, commercial compounds, 7 days, read-out: Minimum Inhibitory Concentration M. tuberculosis H37Rv
[5] = system: Human alveolar epithelial cells (A549); experiment: Resazurin cytotoxicity assay, A549; conditions: commercial compounds; unit from Table 8 head
Text: as §1, §2

[6] = system: human hepatocellular carcinoma cells (Hep-G2); experiment: Resazurin cytotoxicity assay, HepG2; conditions: commercial compounds; unit from Table 8 head
Text: as §1, §2

| SMILES | MIC [1] [µM] | MIC (P. aeruginosa PAO1) [µM] | MIC [2] [µM] | MIC (E. coli EC958) [µM] | Minimum Toxicity Concentration HEK 293 [3] [µM] | Minimum Toxicity Concentration THP-1 [4] [µM] | MIC (M. tuberculosis H37Rv) [µM] | Minimum Toxicity Concentration A549 [5] [µM] | Minimum Toxicity Concentration HepG2 [6] [µM] |
| --- | --- | --- | --- | --- | --- | --- | --- | --- | --- |
| CCCCCCN [Hexylamine] | 50 to 100 (≈ 5.06 to 10.1 µg/mL) | 50 (≈ 5.06 µg/mL) | > 100 | > 100 | >100 | >100 | > 100 | >100 | >100 |
| CCCCCCN(CCCCCC)CCCCCC [Trihexylamine] | 3 to 6.5 (≈ 0.809 to 1.75 µg/mL) | 6.5 (≈ 1.75 µg/mL) | 3 (≈ 0.809 µg/mL) | 3 (≈ 0.809 µg/mL) | 50 | >100 | > 100 | >100 | >100 |
